{"source": "patent US20210032633A1", "about": "“DRUG FOR CHRONIC INFLAMMATORY DISEASE AND METHOD FOR EVALUATING SUSCEPTIBILITY TO CHRONIC INFLAMMATORY DISEASE” (National University Corporation Hokkaido University, priority 2018, published 2021)", "key": {"NEDD4 SP3 mRNA": {"tested_on": "NEDD4 SP3 mRNA", "experiment": "Knockdown efficiency: NEDD4 SP3 mRNA expression by qPCR in siRNA-transfected H4 cells", "type": "cell-based, human", "conditions": "under TNF-α stimulation, relative to GAPDH, remaining expression vs si-control", "procedure": "(§1) siRNA (GCAAGACAAGAGAUGAUUUtt (SEQ ID No. 23), Ambion Silencer Select siRNA, Thermo Fisher Scientific) against NEDD4 SP3, and control siRNA (Ambion Silencer Select siRNA, Thermo Fisher Scientific) were transfected into a human glioma cell line (H4 cells) using Lipofectamine RNAiMAX (Thermo Fisher Scientific), and NEDD4 SP3 knockdown cells were constructed. After stimulating the control cells and the knockdown cells with IL-6 +TNFa, the IL-6 mRNA expression was measured by qPCR (primer sequence: […] (SEQ ID No. 24) and […] (SEQ ID No.25)). Moreover, the knockdown efficiency was confirmed using the NEDD4 SP3 expression as an index. The expression level indicates the relative amount with respect to the housekeeping gene GAPDH (primer sequence: […] (SEQ ID No.26) and CGCTCCTGGAAGATGGTG (SEQ ID No.27))."}, "[1]": {"tested_on": "IL-6 mRNA expression in H4 cells", "experiment": "IL-6 mRNA expression by qPCR in H4 cells stimulated with IL-6 + TNFa (inflammation amplifier)", "type": "cell-based, human", "conditions": "under IL-6 and TNF-α stimulation, relative to GAPDH, remaining expression vs si-control", "procedure": "as §1"}}}
{"substance": "GCAAGACAAGAGAUGAUUUtt (SEQ ID No. 23) (GCAAGACAAGAGAUGAUUUTT; chemistry not given here) [NEDD4 si-SP3, siRNA against NEDD4 SP3, Ambion Silencer Select siRNA, Thermo Fisher Scientific]", "values": [{"measurement": "NEDD4 SP3 mRNA expression level compared to H4 cells introduced with si-control", "setting": "NEDD4 SP3 mRNA", "value": 4.2, "unit": "%"}, {"measurement": "IL-6 mRNA expression level compared to H4 cells introduced with si-control", "setting": "[1]", "value": 41.0, "unit": "%"}]}
